The text below walks through data of patent US8623347B2 (priority 2008, dated 2014).

Read-outs that look alike come from different tables or passages of the source. Bounds are passed on as bounds.

Data set [1] concerns LCMV Armstrong strain (Arm53b). Briefly: organism not typed. It is filed as cell-based. The note with it: for EC50: Vero.
Data set [2] has as its system LCMV S RNA and NP mRNA. It is filed as cell-based.
Data set [3] relates to LCMV NP and L proteins (replication and transcription of RNA analog). It is filed as cell-based.
The nature of data set [4]: in vitro.
Data set [5] concerns LCMV. The settings on record: cited from earlier work.
Where [6] appears, read: read-out: 50% effective concentration (EC50).
Setting [7] is: read-out: Activity (EC50 class).

As to `c1ccc2[nH]c(-c3nc4ccccc4[nH]3)nc2c1` [Compound 1, 1H, 1′H-[2,2′]Bibenzoimidazolyl], the “screening result in compound library screen” value in data set [1] was “hit”. The EC50 in data set [1] (setting [6]) is 0.08 µM; in data set [1] (setting [7]) it was < 1 µM. The “synthesis of viral S RNA and NP mRNA relative to untreated controls” value in data set [2] was “dramatically suppressed”. The CAT reporter activity entry in data set [3] is recorded as “No CAT activity was observed”. In addition, the CC50 in data set [4] is > 25 µM.

Regarding `Cc1cc2nc(-c3nc4cc(C)c(C)cc4[nH]3)[nH]c2cc1C` [Compound 2, 5,6,6′,6′-Tetramethyl-1H, 1′H-[2,2′]bibenzoimidazolyl], in data set [1] (setting [7]), the EC50 lay in the range of 1 to 10 µM.

`Cn1c(-c2nc3ccccc3n2C)nc2ccccc21` [Compound 3, 1,1′-Dimethyl-1H,1′H-[2,2′]bibenzoimidazolyl]: in data set [1] (setting [7]), the EC50 is > 25 µM.

As for `O=[N+]([O-])c1ccc2nc(-c3nc4ccc([N+](=O)[O-])cc4[nH]3)[nH]c2c1` [Compound 5, 6,6′-Dinitro-1H,1′H-[2,2′]bibenzoimidazolyl], the EC50 in data set [1] (setting [7]) was > 25 µM.

On to `Fc1cccc2[nH]c(-c3nc4c(F)cccc4[nH]3)nc12` [Compound 6, 4,4′-Difluoro-1H,1′H-[2,2′]bibenzoimidazolyl], for which the EC50 is 0.006 µM in data set [1] (setting [6]) and < 1 µM in data set [1] (setting [7]).

As to `Fc1ccc2[nH]c(-c3nc4cc(F)ccc4[nH]3)nc2c1` [Compound 7, 5,5′-Difluoro-1H,1′H-[2,2′]bibenzoimidazolyl], the figures for the EC50 in data set [1] (setting [6]) and in data set [1] (setting [7]) were 0.063 µM and < 1 µM, respectively.

Regarding `Clc1ccc2[nH]c(-c3nc4cc(Cl)ccc4[nH]3)nc2c1` [Compound 8, 5,5′-Dichloro-1H,1′H-[2,2′]bibenzoimidazolyl], the EC50 in data set [1] (setting [7]) was in the range of 1 to 10 µM.

For the compound `Brc1ccc2[nH]c(-c3nc4cc(Br)ccc4[nH]3)nc2c1` [Compound 9, 5,5′-Dibromo-1H,1′H-[2,2′]bibenzoimidazolyl], in data set [1] (setting [7]), the EC50 lay within 1 to 10 µM.

Consider `Cc1cccc2[nH]c(-c3nc4c(C)cccc4[nH]3)nc12` [Compound 10, 4,4′-Dimethyl-1H,1′H-[2,2′]bibenzoimidazolyl], for which, in data set [1] (setting [7]), the EC50 was > 25 µM.

Consider `Cc1ccc2[nH]c(-c3nc4cc(C)ccc4[nH]3)nc2c1` [Compound 11, 5,5′-Dimethyl-1H,1′H-[2,2′]bibenzoimidazolyl], for which the EC50 in data set [1] (setting [7]) was > 25 µM.

With `COc1cccc2[nH]c(-c3nc4c(OC)cccc4[nH]3)nc12` [Compound 12, 4,4′-Dimethoxy-1H,1′H-[2,2′]bibenzoimidazolyl], the EC50 in data set [1] (setting [7]) is > 25 µM.

In the case of `COc1ccc2[nH]c(-c3nc4cc(OC)ccc4[nH]3)nc2c1` [Compound 13, 5,5′-Dimethoxy-1H,1′H-[2,2′]bibenzoimidazolyl], the EC50 in data set [1] (setting [7]) lay in the range of 10 to 25 µM.

Consider `COC(=O)c1cccc2[nH]c(-c3nc4c(C(=O)OC)cccc4[nH]3)nc12` [Compound 14, 1H,1′H-[2,2′]Bibenzoimidazolyl-4,4′-dicarboxylic acid dimethyl ester], for which the EC50 in data set [1] (setting [7]) was > 25 µM.

`COC(=O)c1ccc2[nH]c(-c3nc4cc(C(=O)OC)ccc4[nH]3)nc2c1` [Compound 15, 1H,1′H-[2,2′]Bibenzoimidazolyl-5,5′-dicarboxylic acid dimethyl ester]: the EC50 in data set [1] (setting [7]) is > 25 µM.

By melting point is commonly meant the temperature, or range, at which the solid turns liquid. In the case of `c1ccc(-c2cccc3[nH]c(-c4nc5c(-c6ccccc6)cccc5[nH]4)nc23)cc1` [Compound 16, 4,4′-Diphenyl-1H,1′H-[2,2′]bibenzoimidazolyl], the melting point is 247 to 250 °C (dec.). Further, the EC50 in data set [1] (setting [7]) is > 25 µM.

With `Fc1ccc2[nH]c(-c3nc4c(F)c(F)ccc4[nH]3)nc2c1F` [Compound 17, 4,5,4′,5′-Tetrafluoro-1H,1′H-[2,2′]bibenzoimidazolyl], the EC50 in data set [1] (setting [7]) was < 1 µM.

With `Fc1cc(F)c2nc(-c3nc4c(F)cc(F)cc4[nH]3)[nH]c2c1` [Compound 18, 4,6,4′,6′-Tetrafluoro-1H,1′H-[2,2′]bibenzoimidazolyl], the EC50 in data set [1] (setting [7]) is < 1 µM.

On to `Fc1cc2nc(-c3nc4cc(F)c(F)cc4[nH]3)[nH]c2cc1F` [Compound 19, 5,6,5′,6′-Tetrafluoro-1H,1′H-[2,2′]bibenzoimidazolyl], for which the EC50 in data set [1] (setting [7]) was < 1 µM.

As for `c1cnc2nc(-c3nc4ncccc4[nH]3)[nH]c2c1` [Compound 20, 1H,1′H-[2,2′]Bi[imidazo[4,5 b]pyridinyl]], the EC50 in data set [1] (setting [7]) was < 1 µM.

With `c1cc2nc(-c3nc4ccncc4[nH]3)[nH]c2cn1` [Compound 21, 3H,3′H-[2,2′]Bi[imidazo[4,5 c]pyridinyl]], the melting point is > 300 °C. Besides, the EC50 in data set [1] (setting [7]) was 10 to 25 µM.

`NC(=O)c1ncn([C@@H]2O[C@H](CO)[C@@H](O)[C@H]2O)n1` [ribavirin]: the “antiviral activity against LCMV in vitro” value in data set [5] is “limited antiviral activity”.
